pIC50, pKi: −log10 of the molar value. Read-outs that look alike come from different tables or passages of the source.
Columns and labels:
rat P2X7 = rat P2X7 (Rattus norvegicus (Rat), UniProt Q64663); test: P2X7 antagonism in recombinant rat P2X7 cells (column headed P2X7 Rat IC50); format: binding
Procedure: The in vitro affinity of the compounds of the invention for the rat and human P2X7 receptor was determined using a human peripheral blood mononuclear cells (PBMCs), a human whole blood assay, a Ca^2+ flux and radioligand binding assay in recombinant human P2X7 cells and recombinant rat P2X7 cells. […] The data represented in Tables 2 may represent a value from a single determination or when the experiment was run more than once, the data represents the average from between 2-12 runs.
P2X7 Antagonism in Recombinant Human P2X7 Cells or Recombinant Rat P2X7 Cells: […]

P2X7 [1] = target: T1, P2X7 (Homo sapiens (Human), UniProt Q99572); test: Radioligand binding ([3H]A-804598) to membranes of human P2X7-1321N1 cells; conditions: human P2X7-1321N1 membranes, tracer tritiated A-804598, 1 hour at 4° C.
Procedure: P2X7 Antagonism in Recombinant Human P2X7 Cells or Recombinant Rat P2X7 Cells:
human or rat P2X7-1321N1 cells were collected and frozen @ −80° C. On the day of the experiment, cell membrane preparations were made according to standard published methods. […] The compound can be prepared as described in the literature. […] The assay was terminated by filtration (GF/B filters pre-soaked with 0.3% PEI) and washed with washing buffer (Tris-HCl 50 mM). The IC50 generated in the binding assay was corrected for tracer concentration and affinity of the tracer to derive at the affinity (Ki) of the test compounds. The data are presented in Table 2 under the headings: P2X7 human Ki (μM) and P2X7 rat Ki (μM). Data are analyzed and graphed on Graphpad Prism 5. For analysis, each concentration point is averaged from triplicate values and the averaged values are plotted on Graphpad Prism.

P2X7 [2] = target: T1, P2X7; test: P2X7 antagonism in human whole blood, IL-1β release (LPS + Bz-ATP, ELISA); format: cell-based; conditions: LPS 30 ng/ml + Bz-ATP 1 mM; for pIC50: read-out: Human Whole Blood IC50; for IC50: Human Whole Blood IC50 (μM)
Procedure: (§1) P2X7 Antagonism in Human Peripheral Blood Mononuclear Cells (PBMCs) and Human Whole Blood.
(§2) Human blood was collected using a blood donor program. PBMCs were isolated from blood using a Ficoll density gradient technique. Briefly, blood was laid on Ficoll solution and centrifuged at ROOM TEMPERATURE for 20 minutes at 2000 rpm. The buffy layer (between red blood cells and plasma) was carefully collected by aspiration, washed with PBS and centrifuged again at 1500 rpm for 15 minutes. The resulting cell pellet was washed and plated on 96 well-plates for experiments. For the Human Whole Blood experiments, 150 μl of human blood was plated on 96 well-plates. Lipopolysaccharide (LPS) (30 ng/ml) was added to each well and incubated for 1 hour. Test compounds were then added and incubated for 30 minutes. The P2X7 agonist, 2′(3′)-O-(4-benzoylbenzoyl) adenosine 5′-triphosphate (Bz-ATP) was then added at a final concentration of 0.5 mM (PBMC) or 1 mM (blood). Cells were incubated for an additional 1.5 hours. At that point, supernatant was collected and stored for IL-1β assay using manufacturer's protocol for enzyme-linked immunosorbant assay (ELISA). Data was expressed as percent control, where control is defined as the difference in IL-1β release in LPS+Bz-ATP samples and LPS only samples. Data was plotted as response (% control) versus concentration to generate IC50 values. […] Data are analyzed and graphed on Graphpad Prism 5. For analysis, each concentration point is averaged from triplicate values and the averaged values are plotted on Graphpad Prism. The IC50 for each compound is then uploaded into 3DX.

P2X7 [3] = target: T1, P2X7; test: P2X7 antagonism in human peripheral blood mononuclear cells (PBMCs), IL-1β release (LPS + Bz-ATP, ELISA); format: cell-based; conditions: P2X7, 10 μM test compound, LPS 30 ng/ml + Bz-ATP 0.5 mM, read-out: PBMC @10 μM (% control)
Procedure: as §1, §2

T1 sequence (Q99572 whole entry): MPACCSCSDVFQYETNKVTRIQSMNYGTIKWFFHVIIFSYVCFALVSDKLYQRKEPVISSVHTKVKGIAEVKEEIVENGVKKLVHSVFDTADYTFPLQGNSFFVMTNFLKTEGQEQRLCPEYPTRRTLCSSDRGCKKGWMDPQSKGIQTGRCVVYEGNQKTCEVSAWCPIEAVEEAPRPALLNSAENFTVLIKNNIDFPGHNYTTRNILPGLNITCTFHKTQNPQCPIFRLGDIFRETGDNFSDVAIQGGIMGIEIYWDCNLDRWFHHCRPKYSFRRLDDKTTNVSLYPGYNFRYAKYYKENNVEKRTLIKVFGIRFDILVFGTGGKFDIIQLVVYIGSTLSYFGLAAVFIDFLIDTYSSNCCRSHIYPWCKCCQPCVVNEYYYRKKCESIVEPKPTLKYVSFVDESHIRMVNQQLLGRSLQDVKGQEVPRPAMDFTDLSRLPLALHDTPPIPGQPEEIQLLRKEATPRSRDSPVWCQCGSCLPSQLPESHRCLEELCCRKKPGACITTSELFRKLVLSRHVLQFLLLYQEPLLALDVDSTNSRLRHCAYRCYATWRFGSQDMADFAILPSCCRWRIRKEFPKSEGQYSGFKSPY
Sequence of rat P2X7 (Q64663 whole entry): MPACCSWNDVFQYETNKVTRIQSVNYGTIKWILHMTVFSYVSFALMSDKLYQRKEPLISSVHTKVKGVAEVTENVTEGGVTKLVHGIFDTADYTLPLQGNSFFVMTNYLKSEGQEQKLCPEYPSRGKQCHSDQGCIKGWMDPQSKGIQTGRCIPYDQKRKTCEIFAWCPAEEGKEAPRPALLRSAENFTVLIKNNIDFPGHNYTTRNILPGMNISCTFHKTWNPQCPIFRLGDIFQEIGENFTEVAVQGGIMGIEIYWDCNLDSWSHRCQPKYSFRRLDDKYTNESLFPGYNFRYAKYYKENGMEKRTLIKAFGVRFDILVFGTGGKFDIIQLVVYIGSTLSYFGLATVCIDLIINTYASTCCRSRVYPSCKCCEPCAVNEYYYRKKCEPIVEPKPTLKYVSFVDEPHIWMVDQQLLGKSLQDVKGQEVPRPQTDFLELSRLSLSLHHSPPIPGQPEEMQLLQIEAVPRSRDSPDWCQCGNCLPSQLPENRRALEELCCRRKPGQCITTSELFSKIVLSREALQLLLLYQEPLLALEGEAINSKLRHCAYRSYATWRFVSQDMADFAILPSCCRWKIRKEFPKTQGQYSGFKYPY

## Cc1nc(-c2ccnn2C)c2c(n1)[C@H]1CCC[C@@H](C2)N1C(=O)c1ccc(Cl)c(F)c1Cl [Example 58, (2,4-dichloro-3-fluorophenyl)((6S,10R)-2-methyl-4-(1-methyl-1H-pyrazol-5-yl)-5,6,7,8,9,10-hexahydro-6,10-epiminocycloocta[d]pyrimidin-11-yl)methanone]
Rat P2X7
  pIC50: 6.09
P2X7 [1]
  pKi: 7.03
P2X7 [2]
  pIC50: 6.89
P2X7 [3]
  remaining activity at 10 µM: -3.3%

## Cc1nc(-c2ccccn2)c2c(n1)[C@H]1CCC[C@@H](C2)N1C(=O)c1cccc(C(F)(F)F)c1Cl [Example 63, (2-chloro-3-(trifluoromethyl)phenyl)((6S,10R)-2-methyl-4-(pyridin-2-yl)-5,6,7,8,9,10-hexahydro-6,10-epiminocycloocta[d]pyrimidin-11-yl)methanone]
Rat P2X7
  pIC50: 7.48
P2X7 [1]
  pKi: 7.40
P2X7 [2]
  IC50: 0.068 µM
P2X7 [3]
  remaining activity at 10 µM: -0.9%

## Cc1nc(-c2ccn[nH]2)c2c(n1)C1CCCC(C2)N1C(=O)c1cccc(Cl)c1Cl (centres unmarked) [Example 1, (2,3-dichlorophenyl)(2-methyl-4-(1H-pyrazol-5-yl)-5,6,7,8,9,10-hexahydro-6,10-epiminocycloocta[d]pyrimidin-11-yl)methanone]
Rat P2X7
  pIC50: 7.00
P2X7 [1]
  pKi: 7.50
P2X7 [2]
  IC50: 0.027 µM
P2X7 [3]
  remaining activity at 10 µM: 3.3%

## Cc1nc(-c2ccc(F)cc2)c2c(n1)[C@H]1CCC[C@@H](C2)N1C(=O)c1cccc(Cl)c1Cl [Example 55, (2,3-dichlorophenyl)((6S,10R)-4-(4-fluorophenyl)-2-methyl-5,6,7,8,9,10-hexahydro-6,10-epiminocycloocta[d]pyrimidin-11-yl)methanone]
Rat P2X7
  pIC50: 6.66
P2X7 [1]
  pKi: 6.98
P2X7 [2]
  IC50: 0.037 µM
P2X7 [3]
  remaining activity at 10 µM: -1.6%

## Cc1nc(-c2ccn[nH]2)c2c(n1)[C@H]1CCC[C@@H](C2)N1C(=O)c1ccc(Cl)cc1F [Example 28, (4-chloro-2-fluorophenyl)((6S,10R)-2-methyl-4-(1H-pyrazol-5-yl)-5,6,7,8,9,10-hexahydro-6,10-epiminocycloocta[d]pyrimidin-11-yl)methanone]
Rat P2X7
  pIC50: 5.10
P2X7 [1]
  pKi: 6.90
P2X7 [2]
  pIC50: 6.37
P2X7 [3]
  remaining activity at 10 µM: -25.1%

## Cc1nc(-c2cnccn2)c2c(n1)[C@H]1CCC[C@@H](C2)N1C(=O)c1cccc(C(F)(F)F)c1C [Example 50, (2-methyl-3-(trifluoromethyl)phenyl)((6S,10R)-2-methyl-4-(pyrazin-2-yl)-5,6,7,8,9,10-hexahydro-6,10-epiminocycloocta[d]pyrimidin-11-yl)methanone]
Rat P2X7
  pIC50: 7.17
P2X7 [1]
  pKi: 7.03
P2X7 [2]
  pIC50: 6.80
P2X7 [3]
  remaining activity at 10 µM: -2.2%

## Cc1nc(-c2ccnn2C)c2c(n1)[C@H]1CCC[C@@H](C2)N1C(=O)c1cccc(C(F)(F)F)c1Cl [Example 56, (2-chloro-3-(trifluoromethyl)phenyl)((6S,10R)-2-methyl-4-(1-methyl-1H-pyrazol-5-yl)-5,6,7,8,9,10-hexahydro-6,10-epiminocycloocta[d]pyrimidin-11-yl)methanone]
Rat P2X7
  pIC50: 7.94
P2X7 [1]
  pKi: 7.00
P2X7 [2]
  IC50: 0.048 µM
P2X7 [3]
  remaining activity at 10 µM: -2.9%

## Cc1nc(-c2ncccn2)c2c(n1)[C@H]1CCC[C@@H](C2)N1C(=O)c1ccnc(C(F)(F)F)c1Cl [Example 42, (3-chloro-2-(trifluoromethyl)pyridin-4-yl)((6S,10R)-2-methyl-4-(pyrimidin-2-yl)-5,6,7,8,9,10-hexahydro-6,10-epiminocycloocta[d]pyrimidin-11-yl)methanone]
Rat P2X7
  pIC50: 6.80
P2X7 [1]
  pKi: 6.90
P2X7 [2]
  pIC50: 6.97
P2X7 [3]
  remaining activity at 10 µM: -16.1%

## Cc1nc(-c2ccn[nH]2)c2c(n1)[C@H]1CCC[C@@H](C2)N1C(=O)c1cccc(Cl)c1Cl [Example 29, (2,3-dichlorophenyl)((6S,10R)-2-methyl-4-(1H-pyrazol-5-yl)-5,6,7,8,9,10-hexahydro-6,10-epiminocycloocta[d]pyrimidin-11-yl)methanone]
Rat P2X7
  pIC50: 6.69
P2X7 [1]
  pKi: 7.70
P2X7 [2]
  IC50: 0.008 µM
P2X7 [3]
  remaining activity at 10 µM: -22.9%

## Cc1nc(-c2ccn[nH]2)c2c(n1)[C@H]1CCC[C@@H](C2)N1C(=O)c1ccc(F)cc1Cl [Example 22, (2-chloro-4-fluorophenyl)((6S,10R)-2-methyl-4-(1H-pyrazol-5-yl)-5,6,7,8,9,10-hexahydro-6,10-epiminocycloocta[d]pyrimidin-11-yl)methanone]
Rat P2X7
  pIC50: < 5.00
P2X7 [1]
  pKi: 6.50
P2X7 [2]
  pIC50: 6.54
P2X7 [3]
  remaining activity at 10 µM: 26.8%

## Cc1nc(-c2ccccn2)c2c(n1)[C@H]1CCC[C@@H](C2)N1C(=O)c1cccc(C(F)(F)F)c1C [Example 62, (2-methyl-3-(trifluoromethyl)phenyl)((6S,10R)-2-methyl-4-(pyridin-2-yl)-5,6,7,8,9,10-hexahydro-6,10-epiminocycloocta[d]pyrimidin-11-yl)methanone]
Rat P2X7
  pIC50: 7.29
P2X7 [1]
  pKi: 7.20
P2X7 [2]
  IC50: 0.058 µM
P2X7 [3]
  remaining activity at 10 µM: -1.4%

## Cc1nc(-c2ccnn2C)c2c(n1)[C@H]1CCC[C@@H](C2)N1C(=O)c1cccc(C(F)(F)F)c1C [Example 57, (2-methyl-3-(trifluoromethyl)phenyl)((6S,10R)-2-methyl-4-(1-methyl-1H-pyrazol-5-yl)-5,6,7,8,9,10-hexahydro-6,10-epiminocycloocta[d]pyrimidin-11-yl)methanone]
Rat P2X7
  pIC50: 6.22
P2X7 [1]
  pKi: 6.72
P2X7 [2]
  pIC50: 6.72
P2X7 [3]
  remaining activity at 10 µM: -0.3%

## Cc1nc(-c2ccn[nH]2)c2c(n1)[C@@H]1CCC[C@H](C2)N1C(=O)c1cccc(Cl)c1Cl [Example 11, (2,3-dichlorophenyl)((6R,10S)-2-methyl-4-(1H-pyrazol-5-yl)-5,6,7,8,9,10-hexahydro-6,10-epiminocycloocta[d]pyrimidin-11-yl)methanone]
Rat P2X7
  pIC50: 6.02
P2X7 [1]
  pKi: 6.30
P2X7 [2]
  IC50: 0.302 µM
P2X7 [3]
  remaining activity at 10 µM: 24.4%

## Cc1nc(-c2cnccn2)c2c(n1)[C@H]1CCC[C@@H](C2)N1C(=O)c1cccc(C(F)(F)F)c1Cl [Example 46, (2-chloro-3-(trifluoromethyl)phenyl)((6S,10R)-2-methyl-4-(pyrazin-2-yl)-5,6,7,8,9,10-hexahydro-6,10-epiminocycloocta[d]pyrimidin-11-yl)methanone]
Rat P2X7
  pIC50: 7.85
P2X7 [1]
  pKi: 7.50
P2X7 [2]
  IC50: 0.088 µM
P2X7 [3]
  remaining activity at 10 µM: -4.2%

## Cc1nc(-c2ncccn2)c2c(n1)[C@H]1CCC[C@@H](C2)N1C(=O)c1ccc(Cl)c(F)c1Cl [Example 44, (2,4-dichloro-3-fluorophenyl)((6S,10R)-2-methyl-4-(pyrimidin-2-yl)-5,6,7,8,9,10-hexahydro-6,10-epiminocycloocta[d]pyrimidin-11-yl)methanone]
Rat P2X7
  pIC50: 6.60
P2X7 [1]
  pKi: 7.30
P2X7 [2]
  pIC50: 6.81
P2X7 [3]
  remaining activity at 10 µM: -11.6%

## Cc1nc(-c2cnccn2)c2c(n1)[C@H]1CCC[C@@H](C2)N1C(=O)c1ccc(Cl)c(F)c1Cl [Example 47, (2,4-dichloro-3-fluorophenyl)((6S,10R)-2-methyl-4-(pyrazin-2-yl)-5,6,7,8,9,10-hexahydro-6,10-epiminocycloocta[d]pyrimidin-11-yl)methanone]
Rat P2X7
  pIC50: 6.61
P2X7 [1]
  pKi: 7.40
P2X7 [2]
  IC50: 0.04 µM
P2X7 [3]
  remaining activity at 10 µM: -3.4%

## Cc1nc(-c2ccn[nH]2)c2c(n1)[C@H]1CCC[C@@H](C2)N1C(=O)c1ccc(F)c(Cl)c1Cl [Example 25, (2,3-dichloro-4-fluorophenyl)((6S,10R)-2-methyl-4-(1H-pyrazol-5-yl)-5,6,7,8,9,10-hexahydro-6,10-epiminocycloocta[d]pyrimidin-11-yl)methanone]
Rat P2X7
  pIC50: 7.73
P2X7 [1]
  pKi: 7.70
P2X7 [2]
  IC50: 0.025 µM
P2X7 [3]
  remaining activity at 10 µM: -10.2%
